“Also recorded” adds a separate entry of the source.
Columns and labels:
Experiment in all cases: Growth inhibition by 2-phenylethanol in aerobic culture (OD610)
Assay type in all cases: cell-based
[1] = system: Corynebacterium glutamicum R; settings: aerobic shaking culture 33° C., A-liquid medium
Experimental: Tests regarding growth inhibition by 2-phenylethanol in aerobic culture were carried out on Corynebacterium glutamicum, Escherichia coli, Pseudomonas putida, and Kluyveromyces marxianus. Corynebacterium glutamicum R was applied to an A-agar plate (the same as that described above), and was left to stand in a dark place at 33° C. for 15 hours. One platinum loop of Corynebacterium glutamicum R grown on the plate described above was inoculated in a test tube having therein 10 ml of the A-liquid medium, and aerobic shaking culture was carried out at 33° C. for 13 hours. Corynebacterium glutamicum R grown under the above-described conditions was inoculated in 100 ml of the A-liquid medium (the same as that described above) so that the initial bacterial cell concentration OD610=0.05 was achieved. Simultaneously, 2-phenylethanol was added so that the final concentrations thereof became 0, 10, 20, 30, 40, and 50 mM, and aerobic shaking culture was carried out at 33° C. The growth of bacterial cells was determined by measuring the absorbance of OD610.

Escherichia coli MG1655 = settings: aerobic shaking culture, LB-liquid medium
Experimental: Tests regarding growth inhibition by 2-phenylethanol in aerobic culture were carried out on Corynebacterium glutamicum, Escherichia coli, Pseudomonas putida, and Kluyveromyces marxianus. Escherichia coli MG1655 was applied to an LB-agar plate [containing 1% polypeptone, 0.5% yeast extract, 0.5% sodium chloride, and 1.5% agar], and was left to stand at 37° C. for 15 hours in a dark place. One platinum loop of Escherichia coli MG1655 grown on the plate described above was inoculated in a test tube having therein 10 ml of an LB-liquid medium [containing 1% polypeptone, 0.5% yeast extract, and 0.5% sodium chloride], and was subjected to aerobic shaking culture at 37° C. for 13 hours. Escherichia coli MG1655 grown under the above-described conditions was inoculated in 100 ml of the LB-liquid medium so that the initial bacterial cell concentration OD610=0.05 was achieved. Simultaneously, 2-phenylethanol was added so that the final concentrations thereof became 0, 10, 20, 30, 40, and 50 mM, and aerobic shaking culture was carried out at 33° C. The growth of bacterial cells was determined by measuring the absorbance of OD610.

Pseudomonas putida S12 = settings: aerobic shaking culture 30° C., LB(+glucose)-liquid medium
Experimental: Tests regarding growth inhibition by 2-phenylethanol in aerobic culture were carried out on Corynebacterium glutamicum, Escherichia coli, Pseudomonas putida, and Kluyveromyces marxianus. Pseudomonas putida S12 was applied to an LB-agar plate [containing 1% polypeptone, 0.5% yeast extract, 0.5% sodium chloride, and 1.5% agar], and was left to stand at 30° C. for 15 hours in a dark place. One platinum loop of Pseudomonas putida S12 grown on the plate described above was inoculated in a test tube having therein 10 ml of an LB(+glucose)-liquid medium [containing 1% polypeptone, 0.5% yeast extract, 0.5% sodium chloride, and 0.4% glucose], and was subjected to aerobic shaking culture at 33° C. for 13 hours. The Pseudomonas putida S12 strain grown under the above-described conditions was inoculated in 100 ml of the LB(+glucose)-liquid medium so that the initial bacterial cell concentration OD610=0.05 was achieved. Simultaneously, 2-phenylethanol was added so that the final concentrations thereof became 0, 10, 20, 30, 40, and 50 mM, and aerobic shaking culture was carried out at 30° C. The growth of bacterial cells was determined by measuring the absorbance of OD610.

Kluyveromyces marxianus = settings: aerobic shaking culture 40° C., YPD-liquid medium
Experimental: Tests regarding growth inhibition by 2-phenylethanol in aerobic culture were carried out on Corynebacterium glutamicum, Escherichia coli, Pseudomonas putida, and Kluyveromyces marxianus. Further, Kluyveromyces marxianus was applied to a YPD-agar plate [containing 2% polypeptone, 1% yeast extract, 2% glucose, and 1.5% agar], and was left to stand at 30° C. for 15 hours in a dark place. One platinum loop of Kluyveromyces marxianus grown on the plate described above was inoculated in a test tube having therein 10 ml of a YPD-liquid medium [containing 2% polypeptone, 1% yeast extract, and 2% glucose], and was subjected to aerobic shaking culture at 40° C. for 13 hours. Kluyveromyces marxianus grown under the above-described conditions was inoculated in 100 ml of the YPD-liquid medium so that the initial bacterial cell concentration OD610=0.05 was achieved. Simultaneously, 2-phenylethanol was added so that the final concentrations thereof became 0, 10, 20, 30, 40, and 50 mM, and aerobic shaking culture was carried out at 40° C. The growth of bacterial cells was determined by measuring the absorbance of OD610.

OCCc1ccccc1 [2-phenylethanol]
growth of Corynebacterium glutamicum ([1]; 20 mM 2-phenylethanol): not influenced at all
growth of Corynebacterium glutamicum ([1]; 30 mM 2-phenylethanol): delayed, but was improved 24 hours after
growth of Escherichia coli (Escherichia coli MG1655; 20 mM 2-phenylethanol): significantly inhibited; also recorded: strongly inhibited
growth of Escherichia coli (Escherichia coli MG1655; 30 mM 2-phenylethanol): substantially completely inhibited
growth of Pseudomonas putida (Pseudomonas putida S12; 20 mM 2-phenylethanol): strongly inhibited
growth of Pseudomonas putida (Pseudomonas putida S12; 30 mM 2-phenylethanol): substantially completely inhibited
growth of Kluyveromyces marxianus (Kluyveromyces marxianus; 20 mM 2-phenylethanol): strongly inhibited
growth of Kluyveromyces marxianus (Kluyveromyces marxianus; 30 mM 2-phenylethanol): substantially completely inhibited

Source: US12006527B2, “Coryneform bacterium transformant and method for producing 2-phenylethanol using same” (Research Institute of Innovative Technology for the Earth, priority 2018, dated 2024)
